Source: ChEMBL document CHEMBL1134023, “The discovery of RFI-641 as a potent and selective inhibitor of the respiratory syncytial virus” (Bioorg Med Chem Lett, 2001)

Key:
Human orthopneumovirus = test: In vitro inhibitory concentration against HRSV (Human respiratory syncytial virus) by using RSV A2 and the assay is by ELISA; assay type: functional, organism-based
[1] = system: Respiratory syncytial virus; test: In vitro inhibitory activity against respiratory syncytial virus (RSV); assay type: functional, organism-based; details: human respiratory syncytial virus
[2] = Inhibitory concentration required against HSV-1 (Herpes simplex virus) by using HSV-1 in ELISA assay; assay type: functional
Human betaherpesvirus 5 = test: Inhibitory concentration required against HCMV (Human cytomegalovirus) by using HCMV AD169 and assay is via an indicator gene in the virus; assay type: functional, organism-based

Row | IC50 (Human orthopneumovirus) [nM] | IC50 [1] [nM] | IC50 [2] [nM] | IC50 (Human betaherpesvirus 5) [nM] | Structure (SMILES)
1 | 80 | 50 | 19500 | 13900 | NC(=O)CCN(CCC(N)=O)S(=O)(=O)c1cccc(Nc2nc(Nc3cccc(S(=O)(=O)N(CCC(N)=O)CCC(N)=O)c3)nc(Nc3ccc(-c4ccc(Nc5nc(Nc6cccc(S(=O)(=O)N(CCC(N)=O)CCC(N)=O)c6)nc(Nc6cccc(S(=O)(=O)N(CCC(N)=O)CCC(N)=O)c6)n5)cc4S(=O)(=O)O)c(S(=O)(=O)O)c3)n2)c1
2 | 270 | – | > 25000 | 1370 | NC(=O)CNS(=O)(=O)c1cccc(Nc2nc(Nc3cccc(S(=O)(=O)NCC(N)=O)c3)nc(Nc3ccc(-c4ccc(Nc5nc(Nc6cccc(S(=O)(=O)NCC(N)=O)c6)nc(Nc6cccc(S(=O)(=O)NCC(N)=O)c6)n5)cc4S(=O)(=O)O)c(S(=O)(=O)O)c3)n2)c1
3 | 50 | – | 7700 | 2550 | NC(=O)CN(CC(N)=O)S(=O)(=O)c1cccc(Nc2nc(Nc3cccc(S(=O)(=O)N(CC(N)=O)CC(N)=O)c3)nc(Nc3ccc(-c4ccc(Nc5nc(Nc6cccc(S(=O)(=O)N(CC(N)=O)CC(N)=O)c6)nc(Nc6cccc(S(=O)(=O)N(CC(N)=O)CC(N)=O)c6)n5)cc4S(=O)(=O)O)c(S(=O)(=O)O)c3)n2)c1 [RF-1461]
4 | 660 | – | 23200 | 2640 | NC(=O)CCNS(=O)(=O)c1cccc(Nc2nc(Nc3cccc(S(=O)(=O)NCCC(N)=O)c3)nc(Nc3ccc(-c4ccc(Nc5nc(Nc6cccc(S(=O)(=O)NCCC(N)=O)c6)nc(Nc6cccc(S(=O)(=O)NCCC(N)=O)c6)n5)cc4S(=O)(=O)O)c(S(=O)(=O)O)c3)n2)c1
5 | 100 | – | 8500 | 5800 | NC(=O)CCCN(CCCC(N)=O)S(=O)(=O)c1cccc(Nc2nc(Nc3cccc(S(=O)(=O)N(CCCC(N)=O)CCCC(N)=O)c3)nc(Nc3ccc(-c4ccc(Nc5nc(Nc6cccc(S(=O)(=O)N(CCCC(N)=O)CCCC(N)=O)c6)nc(Nc6cccc(S(=O)(=O)N(CCCC(N)=O)CCCC(N)=O)c6)n5)cc4S(=O)(=O)O)c(S(=O)(=O)O)c3)n2)c1
6 | – | 150 | – | – | NC(=O)CCN(CCC(N)=O)S(=O)(=O)c1cccc(Nc2nc(Nc3cccc(S(=O)(=O)N(CCC(N)=O)CCC(N)=O)c3)nc(Nc3ccc(/C=C/c4ccc(Nc5nc(Nc6cccc(S(=O)(=O)N(CCC(N)=O)CCC(N)=O)c6)nc(Nc6cccc(S(=O)(=O)N(CCC(N)=O)CCC(N)=O)c6)n5)cc4S(=O)(=O)O)c(S(=O)(=O)O)c3)n2)c1
